Measured values from patent publication US20090186767A1, “Use of surfactants for mitigating damage to plants from pests” (Cleareso, LLC, priority 2008, published 2009).
“Also recorded” adds a separate entry of the source.

How the values were obtained:
[1] = Solubility of test preparations in water (Example 1); type: physicochemical; details: concentration stated in the value
[2] = system: larvae of the root weevil, Diaprepes abbreviatus; experiment: Immersion of root weevil larvae in test solutions (Example 1); type: in vivo; details: for Judgement of toxicity to larvae: 0.1 to 5.0% treatments, test terminated at 24 hours; for Mortality of larvae with individual compounds and formulations: five larvae
Description: The criterion for toxicity with these larvae is the lack of nipping behavior and its consequent black residue from blood loss and the lack of spontaneous movement.
Experimental Design. Larvae and pupae were received from the Florida Dept. of Agriculture's rearing program in Gainesville, Fla. Larvae were shipped as 50-day larvae (larvae that will pupate in about 10 days). Both larvae and pupae were held at 27° C. in 12 hour cycles of light and dark in their containers as separate individuals until experimentation began.
In the testing, five larvae or pupae were removed from their rearing cups and placed in a 150 ml glass beaker. In testing the Soy Technologies Manufacturer's Base (SMTB), a 5% solution was mixed in either water or carbonated water by adding 10 ml of SMTB to a 250 ml beaker and then adding water or carbonated water to the 200 ml mark. The solutions were then immediately added to the beaker with the larvae or pupae to cover them. Controls with water or carbonated water alone were also included. There was a single tray of five larvae for each treatment at each time period and a five larvae control for each time period. Larvae were removed and placed on plastic weighing trays after 5, 10, 15, 20, 25, and 30 minutes. At the end of 30 minutes all organisms were assessed for mortality. Trays with larvae were left on the bench tip for 24 hours and then another mortality assessment was made.
Concentration Series. With the results from the time series above, larvae were held in different concentrations of STMB for 30 minutes. After 30 minutes, solutions were poured off and the trays wiped dry. Assessments were made at 24 or 48 hours with a few assessments at 72 hours dependent on effects. Treatments were: water or carbonated water as controls, and 0.1, 0.5, 1.0, 2.0, 3.0, 4.0 and 5.0% concentrations in either distilled water or carbonated water. Five larvae were used for each control and treatment. Pupae were not used in this assessment.

[3] = system: tomato root galling by M. javanica; details: in vivo; cited from earlier work
[4] = system: second stage juveniles of Meloidognye hapla; details: cited from earlier work; for Toxicity to nematodes: in vivo; for Toxicity to second stage juveniles: 24 hours at a concentration of 50 ppm
[5] = concentration 0.1 percent, 24 hours
[6] = concentration 1.0 percent, 24 hours
[7] = concentration 3.0 percent, 24 hours
[8] = concentration 5.0 percent, 24 hours
[9] = concentration 0.1 percent, 48 hours
[10] = concentration 0.1 percent, 72 hours
[11] = concentration 1.0 percent, 48 hours
[12] = concentration 1.0 percent, 72 hours
[13] = concentration 3.0 percent, 48 hours
[14] = concentration 3.0 percent, 72 hours
[15] = concentration 5.0 percent, 48 hours
[16] = concentration 5.0 percent, 72 hours

Q: With `COC(=O)CCC(=O)OC` [106-65-0, butanedioic acid, dimethyl ester] as the molecule, how does the “Solubility of the preparation” value ([1]; listed as Dimethyl succinate) read?
A: Its value is “The 3% and 5% concentrations were not soluble; also recorded: the 1.0% appears to be just soluble; also recorded: The 0.1% was soluble”.

Q: And the “Judgement of toxicity to larvae” value [2]?
A: Its value is “judged to be non-toxic”.

Q: And the “Mortality of larvae with individual compounds and formulations” value (from here on “Mortality of larvae”) [2, 5]?
A: Its value is 2.

Q: And the “Mortality of larvae” value [2, 6]?
A: Its value is 2.

Q: What about the “Mortality of larvae” value [2, 7] of the same molecule?
A: The value was 1.

Q: And the “Mortality of larvae” value [2, 8]?
A: Its value is 1.

Q: Which “Solubility of the preparation” value ([1]; listed as Dimethyladipate) does the source give for `COC(=O)CCCCC(=O)OC` [627-93-0, Dimethyl hexanedioate] here?
A: The value was “Preparations of 1.0, 3.0, and 5.0% concentration were not completely soluble; also recorded: The 0.1% preparation was soluble”.

Q: And the “Judgement of toxicity to larvae” value [2]?
A: The value was “judged non-toxic”.

Q: And the “Mortality of larvae” value [2, 5]?
A: The value was 2.

Q: And the “Mortality of larvae” value [2, 6]?
A: The value was 1.

Q: And the “Mortality of larvae” value [2, 7]?
A: The value was 2.

Q: And the “Mortality of larvae” value [2, 8]?
A: Its value is 3.

Q: Which “Mortality of larvae” value [2, 9] does the source give for `COC(=O)CCCC(=O)OC` [1119-40-0, pentanedioic acid, dimethyl ester] here?
A: Its value is 3.

Q: What about the “Mortality of larvae” value [2, 10] of the same molecule?
A: Its value is 3.

Q: What about the “Mortality of larvae” value [2, 11] of the same molecule?
A: The value was 1.

Q: And the “Mortality of larvae” value [2, 12]?
A: The value was 2.

Q: What about the “Mortality of larvae” value [2, 13] of the same molecule?
A: Its value is 0.

Q: What about the “Mortality of larvae” value [2, 14] of the same molecule?
A: The value was 0.

Q: And the “Mortality of larvae” value [2, 15]?
A: The value was 1.

Q: And the “Mortality of larvae” value [2, 16]?
A: Its value is 2.

Q: Which “Concentration producing reduced galling of plants” value [3] does the source give for `CCCCCCCCC(=O)OC` [Methyl perlargonate] here?
A: Its value is 0.8 microliters/liter.

Q: For `CCCCCCCC/C=C\CCCCCCCC(=O)O` [Oleic acid], which Toxicity to nematodes [4] is on record?
A: The Toxicity to nematodes was “relatively nontoxic”.

Q: Which “Toxicity to second stage juveniles” value [4] does the source give for `CCCCCCCCCC(=O)O` [decanoic acid] here?
A: Its value is “killed all second stage juveniles”.

Q: With `CCCCCCCC/C=C\CCCCCCCC(=O)[O-].[K+]` [potassium oleate] as the molecule, how does the Toxicity to nematodes [4] read?
A: The Toxicity to nematodes was “relatively nontoxic”.

Q: With `CCCCCCCCCCC(=O)O` [undecanoic acid] as the molecule, how does the “Toxicity to second stage juveniles” value [4] read?
A: The value was “killed all second stage juveniles”.

Q: Which “Mortality of larvae” value [2, 5] does the source give for “Polyoxyethylene 10 tridecylether [24938-91-8]” here?
A: The value was 0.

Q: What about the “Mortality of larvae” value [2, 9] of the same molecule?
A: Its value is 0.

Q: And the “Mortality of larvae” value [2, 10]?
A: Its value is 0.

Q: What about the “Mortality of larvae” value [2, 6] of the same molecule?
A: The value was 2.

Q: What about the “Mortality of larvae” value [2, 11] of the same molecule?
A: Its value is 2.

Q: What about the “Mortality of larvae” value [2, 12] of the same molecule?
A: The value was 2.

Q: What about the “Mortality of larvae” value [2, 7] of the same molecule?
A: The value was 0.

Q: And the “Mortality of larvae” value [2, 13]?
A: Its value is 0.

Q: What about the “Mortality of larvae” value [2, 14] of the same molecule?
A: Its value is 0.

Q: What about the “Mortality of larvae” value [2, 8] of the same molecule?
A: The value was 0.

Q: And the “Mortality of larvae” value [2, 15]?
A: Its value is 3.

Q: And the “Mortality of larvae” value [2, 16]?
A: The value was 3.

Q: Which “Concentration producing reduced galling of plants” value [3] does the source give for glycol pelargonate here?
A: Its value is 6.4 microliters/liter.
